Data: ChEMBL document CHEMBL5634133, “Indirubin derivatives as bifunctional molecules inducing DNA damage and targeting PARP for the treatment of cancer” (Eur J Med Chem, 2023)
Calls of active or inactive are those of the source. The calls are words filed in the database; no cut-off is given here.

Columns and labels:
NCM460 [1] = assay: Antiproliferative activity against human NCM460 cells assessed as inhibition of cell viability incubated for 72 hrs by CCK8 assay; assay type: functional, cell-based; details: NCM460, 72 h
A549 [2] = assay: Antiproliferative activity against human A549 cells assessed as inhibition of cell viability incubated for 72 hrs by CCK8 assay; assay type: functional, cell-based; details: A549, 72 h
MCF7 [3] = assay: Antiproliferative activity against human MCF7 cells assessed as inhibition of cell viability incubated for 72 hrs by CCK8 assay; assay type: functional, cell-based; details: MCF7, 72 h
MV4-11 [4] = assay: Antiproliferative activity against human MV4-11 cells assessed as inhibition of cell viability incubated for 72 hrs by CCK8 assay; assay type: functional, cell-based; details: MV4-11, 72 h
HCT-116 [5] = assay: Antiproliferative activity against human HCT-116 cells assessed as inhibition of cell viability incubated for 72 hrs by CCK8 assay; assay type: functional, cell-based; details: HCT-116, 72 h
HCT-116 [6] = assay: Antiproliferative activity against human HCT-116 cells assessed as inhibition of cell viability incubated for 72 hrs in presence of olaparib by CCK8 assay; assay type: functional, cell-based; details: HCT-116, 72 h
MV4-11 [7] = assay: Antiproliferative activity against human MV4-11 cells assessed as inhibition of cell viability incubated for 72 hrs in presence of olaparib by CCK8 assay; assay type: functional, cell-based; details: MV4-11, 72 h
MCF7 [8] = assay: Antiproliferative activity against human MCF7 cells assessed as inhibition of cell viability incubated for 72 hrs in presence of olaparib by CCK8 assay; assay type: functional, cell-based; details: MCF7, 72 h
A549 [9] = assay: Antiproliferative activity against human A549 cells assessed as inhibition of cell viability incubated for 72 hrs in presence of olaparib by CCK8 assay; assay type: functional, cell-based; details: A549, 72 h
NCM460 [10] = assay: Antiproliferative activity against human NCM460 cells assessed as inhibition of cell viability incubated for 72 hrs in presence of olaparib by CCK8 assay; assay type: functional, cell-based; details: NCM460, 72 h
HCT-116 [11] = assay: Antiproliferative activity against human HCT-116 cells assessed as inhibition of cell viability incubated for 72 hrs in presence of Niraparib by CCK8 assay; assay type: functional, cell-based; details: HCT-116, 72 h
MV4-11 [12] = assay: Antiproliferative activity against human MV4-11 cells assessed as inhibition of cell viability incubated for 72 hrs in presence of Niraparib by CCK8 assay; assay type: functional, cell-based; details: MV4-11, 72 h
MCF7 [13] = assay: Antiproliferative activity against human MCF7 cells assessed as inhibition of cell viability incubated for 72 hrs in presence of Niraparib by CCK8 assay; assay type: functional, cell-based; details: MCF7, 72 h
A549 [14] = assay: Antiproliferative activity against human A549 cells assessed as inhibition of cell viability incubated for 72 hrs in presence of Niraparib by CCK8 assay; assay type: functional, cell-based; details: A549, 72 h
NCM460 [15] = assay: Antiproliferative activity against human NCM460 cells assessed as inhibition of cell viability incubated for 72 hrs in presence of Niraparib by CCK8 assay; assay type: functional, cell-based; details: NCM460, 72 h
HCT-116 [16] = assay: Antiproliferative activity against human HCT-116 cells assessed as combination index incubated for 72 hrs in presence of olaparib by CCK8 assay; assay type: functional
MV4-11 [17] = assay: Antiproliferative activity against human MV4-11 cells assessed as combination index incubated for 72 hrs in presence of olaparib by CCK8 assay; assay type: functional
MCF7 [18] = assay: Antiproliferative activity against human MCF7 cells assessed as combination index incubated for 72 hrs in presence of olaparib by CCK8 assay; assay type: functional
A549 [19] = assay: Antiproliferative activity against human A549 cells assessed as combination index incubated for 72 hrs in presence of olaparib by CCK8 assay; assay type: functional
NCM460 [20] = assay: Antiproliferative activity against human NCM460 cells assessed as combination index incubated for 72 hrs in presence of olaparib by CCK8 assay; assay type: functional
HCT-116 [21] = assay: Antiproliferative activity against human HCT-116 cells assessed as combination index incubated for 72 hrs in presence of Niraparib by CCK8 assay; assay type: functional
MV4-11 [22] = assay: Antiproliferative activity against human MV4-11 cells assessed as combination index incubated for 72 hrs in presence of Niraparib by CCK8 assay; assay type: functional
MCF7 [23] = assay: Antiproliferative activity against human MCF7 cells assessed as combination index incubated for 72 hrs in presence of Niraparib by CCK8 assay; assay type: functional
A549 [24] = assay: Antiproliferative activity against human A549 cells assessed as combination index incubated for 72 hrs in presence of Niraparib by CCK8 assay; assay type: functional
NCM460 [25] = assay: Antiproliferative activity against human NCM460 cells assessed as combination index incubated for 72 hrs in presence of Niraparib by CCK8 assay; assay type: functional
HCT-116 [26] = assay: Antitumor activity against human HCT-116 cells xenografted in BALB/c nude mouse assessed as tumor growth inhibition at 20 mg/kg, ip administered for 14 days relative to control; assay type: functional; details: Mus musculus, HCT-116, 336 h, time 14 day, read-out: TGI
HCT-116 [27] = assay: Antitumor activity against human HCT-116 cells xenografted in BALB/c nude mouse assessed as tumor growth inhibition at 20 mg/kg, ip administered for 14 days in presence of Olaparib relative to control; assay type: functional; details: HCT-116, 336 h, time 14 day, read-out: TGI
HCT-116 [28] = assay: Induction of DNA damage in human HCT-116 cells assessed as increase in gammaH2AX protein level at 1 uM incubated for 48 hrs in presence of Olaparib by Western blotting analysis; assay type: functional, cell-based

SMILES: O=C1Nc2ccccc2/C1=C1/Nc2ccccc2/C1=N\O
- IC50 (NCM460 [1]): 13.1 µM
- IC50 (A549 [2]): 8.21 µM
- IC50 (MCF7 [3]): 4.1 µM
- IC50 (MV4-11 [4]): 6.01 µM
- IC50 (HCT-116 [5]): 3.88 µM
- IC50 (HCT-116 [6]): 1370 nM
- IC50 (MV4-11 [7]): 2360 nM
- IC50 (MCF7 [8]): 2330 nM
- IC50 (A549 [9]): 6.06 µM
- IC50 (NCM460 [10]): 20.2 µM
- IC50 (HCT-116 [11]): 830 nM
- IC50 (MV4-11 [12]): 1690 nM
- IC50 (MCF7 [13]): 1410 nM
- IC50 (A549 [14]): 4.17 µM
- IC50 (NCM460 [15]): 21.1 µM
- CI (HCT-116 [16]): 0.47
- CI (MV4-11 [17]): 0.57
- CI (MCF7 [18]): 0.59
- CI (A549 [19]): 0.94
- CI (NCM460 [20]): 0.92
- CI (HCT-116 [21]): 0.67
- CI (MV4-11 [22]): 0.72
- CI (MCF7 [23]): 0.47
- CI (A549 [24]): 0.84
- CI (NCM460 [25]): 1
- inhibition in vivo at 20 mg/kg (HCT-116 [26]): 47.4%
- inhibition in vivo at 20 mg/kg (HCT-116 [27]): 64.6%
- Activity (HCT-116 [28]): Active
